Laboratory results from patent US20220154296A1, “USE OF ANTI-PD-1 ANTIBODY IN PREPARATION OF MEDICAMENT FOR TREATING SOLID TUMORS” (Shanghai Junshi Biosciences Co., Ltd., priority 2019, published 2022).

Columns and labels:
advanced ESCC = test: Phase Ib/II clinical trial, anti-tumor activity study (RECIST v1.1), with biomarker subgroups; type: in vivo, human
Experimental: From Mar. 9, 2017 to Aug.
PD-L1 was detected in formalin-fixed paraffin-embedded (FFPE) tumor tissue samples by immunohistochemistry (IHC) methods and verified on the VENTANA Benchmark Ultra system at the clinical center laboratory (Q2 laboratory, Beijing). The immunohistochemistry detection of PD-L1 was performed using the Spring Bioscience (Roche) rabbit anti-human PD-L1 monoclonal antibody (clone SP142, Cat No: M4422). The expression of PD-L1 on tumor cells (TCs) and tumor infiltrating immune cells (ICs) was assessed by certified pathologists using stained tumor tissue. The PD-L1 positive status is defined as the presence of tumor cells with membrane staining intensity ≥1% or the presence of PD-LI staining intensity of tumor infiltrating immune cells covering ≥1% of related, continuous pen-cancerous stromal tumor area in the tumor occupied by tumor cells.
During the clinical trial described in Example 1, tumor biopsy samples from 50 subjects were subjected to whole exome sequencing (WES). TMB was determined by analyzing somatic mutations within coding regions of the human genome.

CT-26 cells = test: Inhibitory effect on tumor growth in CT-26 cell-transplanted B-hPD-1 mice; type: in vivo
Experimental: CT-26 cells were seeded subcutaneously on the right side of hPD-1 humanized female mice at a concentration of 2.5×10^5 cells/0.1 mL, and the mice were randomly grouped by tumor volume when tumors grew to about 93 mm^3 with 7 mice per group, for a total of 4 groups:
G1: Anti-KLH hIgG4 (1 mg/kg) negative control group;
G3: palbociclib (100 mg/kg);
The experiment was ended 11 days after the first administration. Tumor volume and body weight of mice were measured and recorded twice a week. At the end of the experiment, animals were euthanized and tumor growth inhibition (TGITv%) was calculated.

[1] = 59 patients, investigator-assessed RECIST v1.1
[2] = patients with 11q13 amplification (n=24)
[3] = patients with low or no PD-L1 expression (5% cutoff)
[4] = patients without 11q13 amplification (n=26)
[5] = subjects with more than 5% PD-L1 expression
[6] = without vs. with 11q13 amplification

“toripalimab: humanized IgG4 anti-PD-1 mAb comprising light and heavy chain amino acid sequences set forth in SEQ ID NOs: 9 and 10 (WO2014206107)” was tested, and the ORR confirmed (advanced ESCC; 59 patients) was 15.3%, the DCR (advanced ESCC; 59 patients, RECIST v1.1) was 47.5% and the Optimal response rate (advanced ESCC; 59 patients, RECIST v1.1) was 18.6%. The CR (advanced ESCC; [1]) was 1 case, the “PR (including 2 cases of undiagnosed PR)” value (advanced ESCC; [1]) was 10 cases and the “Subjects who had died” value (advanced ESCC; 59 subjects, as of Dec. 31, 2018) was 67.8%. The “Median PFS” value (advanced ESCC; PD-L1 negative subjects) was 2.0 months, the ORR (advanced ESCC; PD-L1 negative subjects) was 18.4% and the OS (advanced ESCC; PD-L1 negative subjects) was 6.9 months. The OS (advanced ESCC; PD-L1 positive patients) was 6.7 months, the ORR (advanced ESCC; PD-L1 positive patients (≥1% TC or IC, SP142 IHC)) was 15.8% and the “Median PFS” value (advanced ESCC; PD-L1 positive subjects) was 3.4 months. The OR (advanced ESCC; TMB equal to or greater than 12 mutations/Mb (n=11)) was 18.2%, the OR (advanced ESCC; TMB less than 12 mutations/Mb (n=36)) was 19.4% and the “Optimal response (%)” value (advanced ESCC; Total, 59 people) was 18.6%. The Mean response time (advanced ESCC; all patients) was 1.8 months, the “Median OS” value (advanced ESCC; all patients) was 6.9 months and the “Median PFS” value (advanced ESCC; all patients) was 2.1 months. The “Median duration of response” value (advanced ESCC; all patients) was 11.2 months, the “Subjects with arbitrary size reduction in target lesions relative to baseline” value (advanced ESCC; all patients) was 42.4% and the OS (advanced ESCC; high TMB (≥12)) was 11.5 months. For the same substance, the PFS (advanced ESCC; high TMB (≥12)) was 4.0 months, the OS (advanced ESCC; low TMB (<12)) was 6.7 months and the PFS (advanced ESCC; low TMB (<12)) was 1.9 months. The “Median OS” value (advanced ESCC; patients with 11q13 amplification) was 5.6 months, the Objective response rate (advanced ESCC; [2]) was 42 and the PFS (advanced ESCC; [2]) was 1.0 month. The DCR (advanced ESCC; [3]) was 42.3%, the ORR (advanced ESCC; [3]) was 15.4% and the “Median OS” value (advanced ESCC; patients without 11q13 amplification) was 11.5 months. For the same substance, the Objective response rate (advanced ESCC; [4]) was 30.8%, the PFS (advanced ESCC; [4]) was 3.7 months and the “Optimal response (%)” value (advanced ESCC; subgroup Age >60, 29 people) was 20.7%. For the same substance, the “Optimal response (%)” value (advanced ESCC; subgroup Age ≤60, 30 people) was 16.7%, the “Optimal response (%)” value (advanced ESCC; subgroup ECOG 0, 5 people) was 40.0% and the “Optimal response (%)” value (advanced ESCC; subgroup ECOG 1, 54 people) was 16.7%. For the same substance, the “Optimal response (%)” value (advanced ESCC; subgroup LDH >ULN, 14 people) was 28.6%, the “Optimal response (%)” value (advanced ESCC; subgroup LDH Normal, 45 people) was 15.6% and the “Optimal response (%)” value (advanced ESCC; subgroup Liver metastasis No, 43 people) was 18.6%. The “Optimal response (%)” value (advanced ESCC; subgroup Liver metastasis Yes, 16 people) was 18.8%, the “Optimal response (%)” value (advanced ESCC; subgroup Prior treatment 1, 13 people) was 15.4% and the “Optimal response (%)” value (advanced ESCC; subgroup Prior treatment 2, 19 people) was 15.8%. For the same substance, the “Optimal response (%)” value (advanced ESCC; subgroup Prior treatment 3+, 27 people) was 22.2%, the “Optimal response (%)” value (advanced ESCC; subgroup Sex Female, 7 people) was 14.3% and the “Optimal response (%)” value (advanced ESCC; subgroup Sex Male, 52 people) was 19.2%. The “Optimal response (%)” value (advanced ESCC; subgroup Tumor volume (baseline target lesion) >100 mm, 13 people) was 15.4%, the “Optimal response (%)” value (advanced ESCC; subgroup Tumor volume (baseline target lesion) ≤100 mm, 46 people) was 19.6% and the DCR (advanced ESCC; [5]) was 100%. The ORR (advanced ESCC; [5]) was 40%, the “HR for OS” value (advanced ESCC; [6]) was 0.60 and the “HR for PFS” value (advanced ESCC; [6]) was 0.47. For the same substance, the “TGI (%)” value (CT-26 cells; 11 days after the first administration, toripalimab 1 mg/kg i.p., palbociclib 100 mg/kg orally) was 8.0% and the “Tumor volume 11 days after the first administration” value (CT-26 cells; mean ± standard error, toripalimab 1 mg/kg i.p. twice a week, palbociclib 100 mg/kg orally once a day, 7 mice per group) was 2519 ± 320 mm^3.
